Patent publication US11780826B2 (Amgen Inc., priority 2017, dated 2023)

The compounds below were run on Bovine cardiac myofibrils (assay: In vitro model of dose-dependent myofibril ATPase modulation (AC1.4, pyruvate kinase/lactate dehydrogenase-coupled ATPase assay at pCa25)). Conditions: concentration at which ATPase activity was 1.4-fold higher than the bottom of the dose curve, mean of a minimum of two independent tests.
Type: biochemical
Method in brief: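 Bovine cardiac myofibrils, detergent-treated; 0.25-1.0 mg/ml. Buffer: K-PIPES 12 mM, MgCl2 2 mM, DTT 1 mM, BSA 0.1 mg/ml, pH 6.80, 22° C; Ca2+ set by EGTA/CaCl2. ATP 1 mM, NADH/PEP-coupled, A340. 4-parameter fit; n≥2.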

| SMILES | AC1.4 [µM] |
| --- | --- |
| O=C(NCc1ccc(C(F)(F)F)cc1)[C@H]1CCCN1C(=O)[C@H]1CCCN(S(=O)(=O)N2CC(Nc3ccc(F)cc3)C2)C1 [Example 469, 1-(((3S)-1-((3-((4-fluorophenyl)amino)-1-azetidinyl)sulfonyl)-3-piperidinyl)carbonyl)-N-(4-(trifluoromethyl)benzyl)-D-prolinamide] | 1.9915 |
| N#CC1CN(S(=O)(=O)N2CC[C@H](C(=O)N3CCC[C@@H]3C(=O)NCc3ccc(C(F)(F)F)cc3F)C2)C1 [Example 470, 1-(((3S)-1-((3-cyano-1-azetidinyl)sulfonyl)-3-pyrrolidinyl)carbonyl)-N-(2-fluoro-4-(trifluoromethyl)benzyl)-D-prolinamide] | 1.9915 |
| O=C(N[C@@H](c1cc(F)c(Cl)cc1F)C1COC1)[C@H]1C[C@H]2C[C@H]2N1C(=O)c1cc(C2CC2)ccn1 [Example 471, (1R,3R,5R)-N-((R)-(4-chloro-2,5-difluorophenyl)(3-oxetanyl)methyl)-2-((4-cyclopropyl-2-pyridinyl)carbonyl)-2-azabicyclo[3.1.0]hexane-3-carboxamide] | 1.996 |
| Cc1ccc(C(=O)N2[C@@H](C(=O)N[C@@H](c3cc(F)c(Cl)cc3F)C3COC3)C[C@H]3C[C@H]32)cc1S(C)(=O)=O [Example 472, (1R,3R,5R)-N-((R)-(4-chloro-2,5-difluorophenyl)(3-oxetanyl)methyl)-2-(4-methyl-3-(methylsulfonyl)benzoyl)-2-azabicyclo[3.1.0]hexane-3-carboxamide] | 1.807 |
| O=C1NCCCCC1NS(=O)(=O)N1CCC[C@H](C(=O)N2CCC[C@@H]2C(=O)NCc2ccc(C(F)(F)F)cc2)C1 (stereo partly drawn) [Example 473, (2R)-1-((3S)-1-(N-(2-oxoazepan-3-yl)sulfamoyl)piperidine-3-carbonyl)-N-(4-(trifluoromethyl)benzyl)pyrrolidine-2-carboxamide] | 2.035 |
| COC1CCN(S(=O)(=O)c2cccc(C(=O)N3CCC[C@@H]3C(=O)NCc3ccc(C(F)(F)F)cc3)c2)CC1 [Example 474, 1-((3-((4-methoxy-1-piperidinyl)sulfonyl)phenyl)carbonyl)-N-(4-(trifluoromethyl)benzyl)-D-prolinamide] | 2.036 |
| CS(=O)(=O)c1cccc(C(=O)N2CC3(CCC3)[C@@H]2C(=O)N[C@@H](c2ccc(C(F)(F)F)cc2F)C2CC2)c1 [Example 475, (1R)-N-((R)-cyclopropyl(2-fluoro-4-(trifluoromethyl)phenyl)methyl)-2-(3-(methylsulfonyl)benzoyl)-2-azaspiro[3.3]heptane-1-carboxamide] | 1.866 |
| O=C(O[C@@H]1CC(C(=O)N[C@@H](c2cc(F)c(Cl)cc2F)C2COC2)N(C(=O)c2ccnc(C(F)F)c2)C1)c1ccnc(C(F)F)c1 (stereo partly drawn) [Example 476, (3R,5R)-5-(((R)-(4-chloro-2,5-difluorophenyl)(3-oxetanyl)methyl)carbamoyl)-1-((2-(difluoromethyl)-4-pyridinyl)carbonyl)-3-pyrrolidinyl2-(difluoromethyl)-4-pyridinecarboxylate] | 2.071 |
| O=C(NCc1ccc(C(F)(F)F)cc1)[C@H]1CCCN1C(=O)[C@H]1CCCN(S(=O)(=O)N2CC(c3ccc(F)cc3)C2)C1 [Example 477, 1-(((3S)-1-((3-(4-fluorophenyl)-1-azetidinyl)sulfonyl)-3-piperidinyl)carbonyl)-N-(4-(trifluoromethyl)benzyl)-D-prolinamide] | 2.0765 |
| CN(C)S(=O)(=O)c1cccc(C(=O)N2C[C@H]3C[C@H]3[C@@H]2C(=O)NCc2ccc(C(F)(F)F)cc2)c1 [Example 478, (1R,2R,5S)-3-(3-(dimethylsulfamoyl)benzoyl)-N-(4-(trifluoromethyl)benzyl)-3-azabicyclo[3.1.0]hexane-2-carboxamide] | 2.082 |
| CS(=O)(=O)c1cccc(C(=O)N2CCC[C@@H]2C(=O)N[C@@H](c2ccc(Cl)cc2F)C2CC2)c1 [Example 479, N-((R)-(4-chloro-2-fluorophenyl)(cyclopropyl)methyl)-1-(3-(methylsulfonyl)benzoyl)-D-prolinamide] | 1.887 |
| O=C(N[C@@H](c1ccc(C(F)(F)F)cc1F)C1COC1)[C@H]1C[C@H]2C[C@H]2N1C(=O)c1ccnc(C(F)F)c1 [Example 480, (1R,3R,5R)-2-((2-(difluoromethyl)-4-pyridinyl)carbonyl)-N-((R)-(2-fluoro-4-(trifluoromethyl)phenyl)(3-oxetanyl)methyl)-2-azabicyclo[3.1.0]hexane-3-carboxamide] | 2.1525 |
| CS(=O)(=O)c1cccc(C(=O)N2CCC[C@@H]2C(=O)NC(c2ccc(C(F)(F)F)cc2)C2CNC(=O)C2)c1 (some centres unmarked) [Example 482] | 1.945 |
| O=C(NCc1ccc(C(F)(F)F)cc1)[C@H]1CCCN1C(=O)[C@H]1CCCN(S(=O)(=O)N2CC(C3CCC3)C2)C1 [Example 483, 1-(((3S)-1-((3-cyclobutyl-1-azetidinyl)sulfonyl)-3-piperidinyl)carbonyl)-N-(4-(trifluoromethyl)benzyl)-D-prolinamide] | 2.168 |
| CS(=O)(=O)c1cccc(C(=O)N2C[C@@H]3C[C@@H]3[C@@H]2C(=O)N[C@@H](c2ccc(C(F)(F)F)cc2F)C2CC2)c1 [Example 484, (1S,2R,5R)-N-((R)-cyclopropyl(2-fluoro-4-(trifluoromethyl)phenyl)methyl)-3-(3-(methylsulfonyl)benzoyl)-3-azabicyclo[3.1.0]hexane-2-carboxamide] | 2.014 |
| CS(=O)(=O)c1cccc(C(=O)N2[C@@H](C(=O)N[C@@H](c3ccc(Cl)c(F)c3)C3CC3)C[C@H]3C[C@H]32)c1 [Example 485, (1R,3R,5R)-N-((R)-(4-chloro-3-fluorophenyl)(cyclopropyl)methyl)-2-(3-(methylsulfonyl)benzoyl)-2-azabicyclo[3.1.0]hexane-3-carboxamide] | 2.0445 |
| O=C(NCc1ccc(C(F)(F)F)cc1)[C@H]1CCCN1C(=O)c1cccc(S(=O)(=O)N2CCC2)c1 [Example 486, 1-(3-(l-azetidinylsulfonyl)benzoyl)-N-(4-(trifluoromethyl)benzyl)-D-prolinamide] | 2.202 |
| O=C(N[C@@H](c1cc(F)c(Cl)cc1F)C1COC1)[C@H]1C[C@H]2C[C@H]2N1C(=O)c1cc(C(F)(F)F)ncn1 [Example 487, (1R,3R,5R)-N-((R)-(4-chloro-2,5-difluorophenyl)(3-oxetanyl)methyl)-2-((6-(trifluoromethyl)-4-pyrimidinyl)carbonyl)-2-azabicyclo[3.1.0]hexane-3-carboxamide] | 2.218 |
| CS(=O)(=O)c1cncc(C(=O)N2C[C@@H](F)C[C@@H]2C(=O)N[C@@H](c2cc(F)c(Cl)cc2F)C2CC2)c1 [Example 488, (4S)-N-((R)-(4-chloro-2,5-difluorophenyl)(cyclopropyl)methyl)-4-fluoro-1-((5-(methylsulfonyl)-3-pyridinyl)carbonyl)-D-prolinamide] | 2.1245 |
| O=C(NCc1ccc(C(F)(F)F)cc1)[C@H]1CCCN1C(=O)[C@H]1CCCN(S(=O)(=O)N2CC(NC(=O)C(F)(F)F)C2)C1 [Example 489, 1-(((3S)-1-((3-((trifluoroacetyl)amino)-1-azetidinyl)sulfonyl)-3-piperidinyl)carbonyl)-N-(4-(trifluoromethyl)benzyl)-D-prolinamide] | 2.2325 |
